Experiments:
[1] = Noninvasive total blood hemoglobin in immoderate iron deficient subjects before and after 2 weeks of iron chelate; format: in vivo, human; settings: immoderate iron deficient subjects 2-7 years of age, baseline average 10.03 g/dL, 1 mL (15 mg) daily, Masimo rainbow SET SpHb
Description: To examine this, the inventors have recruited a population (2-7 years of age) of immoderate iron deficient subjects having an average hemoglobin level of 10.03 g/dL. Total blood hemoglobin levels were measured noninvasively at baseline (time 0) and following treatment (after 2 weeks) from the index finger of subjects using Masimo rainbow SET SpHb technology. Subjects were instructed to take 1 mL of iron bis-glycinate chelate (15 mg) daily.

[2] = clinical studies; cited from earlier work

SMILES | average total blood hemoglobin level following treatment ([1]; after two weeks) [g/dL] | increase of total blood hemoglobin level, on average ([1]; two weeks, index finger) [%] | hemoglobin and ferritin indices compared with ferrous sulfate or ferrous ascorbate [2]
NCC(=O)[O-].NCC(=O)[O-].[Fe+2] [iron bis-glycinate chelate] | 11.13 | 11 | 
NCC(=O)[O-].NCC(=O)[O-].[Fe+2] [Ferrochel, ferrous bis glycinate] |  |  | improved hemoglobin and ferritin indices at lower dosages than ferrous sulfate or ferrous ascorbate

Source: patent US20210393678A1, “PERSONALIZED FOOD PRODUCTS FOR ENSURING ADEQUATE IRON INTAKE” (MY-OR D[…]., priority 2018, published 2021)
